Reference: ChEMBL document CHEMBL1136811, “Design of novel chimeric melanotropin-deltorphin analogues. Discovery of the first potent human melanocortin 1 receptor antagonist” (J Med Chem, 2003)

Tests used:
[1] = test system: Melanocortin receptor 1 (Xenopus laevis); test: Antagonistic activity towards Melanocortin 1 receptor in Xenopus frog skin using competitive binding in the presence of 500 pM of alpha-melanocyte stimulating hormone.
[2] = molecular target: Melanocortin receptor 1 (Xenopus laevis); test: Agonistic activity towards Melanocortin 1 receptor in the Xenopus frog skin assay

Row | IC50 [1] | EC50 [2] [nM] | Structure (SMILES)
1 | Not Active | 510 | CC(C)[C@H](NC(=O)[C@@H]1CCC(=O)NCC(=O)N[C@@H](Cc2c[nH]cn2)C(=O)N[C@H](Cc2ccccc2)C(=O)N[C@@H](CCCN=C(N)N)C(=O)N[C@@H](Cc2c[nH]c3ccccc23)C(=O)N1)C(=O)N[C@H](C(=O)NCC(N)=O)C(C)C
2 | Not Active | > 10000 | CC(C)[C@H](NC(=O)[C@@H]1CCC(=O)NCCCCCC(=O)N[C@@H](Cc2c[nH]cn2)C(=O)N[C@@H](Cc2ccccc2)C(=O)N[C@@H](CCCN=C(N)N)C(=O)N[C@@H](Cc2c[nH]c3ccccc23)C(=O)N1)C(=O)N[C@H](C(=O)NCC(N)=O)C(C)C
3 | Not Active | 23 | CC(C)[C@H](NC(=O)[C@@H]1CCC(=O)NCCCCCC(=O)N[C@@H](Cc2c[nH]cn2)C(=O)N[C@H](Cc2ccccc2)C(=O)N[C@@H](CCCN=C(N)N)C(=O)N[C@@H](Cc2c[nH]c3ccccc23)C(=O)N1)C(=O)N[C@H](C(=O)NCC(N)=O)C(C)C
4 | Not Active | 2700 | CC(C)[C@H](NC(=O)[C@@H]1CCC(=O)NCCCC(=O)N[C@@H](Cc2c[nH]cn2)C(=O)N[C@@H](Cc2ccccc2)C(=O)N[C@@H](CCCN=C(N)N)C(=O)N[C@@H](Cc2c[nH]c3ccccc23)C(=O)N1)C(=O)N[C@H](C(=O)NCC(N)=O)C(C)C
5 | Not Active |  | CC(C)[C@H](NC(=O)[C@@H]1CCC(=O)NCCC(=O)N[C@@H](Cc2c[nH]cn2)C(=O)N[C@H](Cc2ccccc2)C(=O)N[C@@H](CCCN=C(N)N)C(=O)N[C@@H](Cc2c[nH]c3ccccc23)C(=O)N1)C(=O)N[C@H](C(=O)NCC(N)=O)C(C)C
6 |  | 31 | CC(C)[C@H](NC(=O)[C@@H]1CCC(=O)NCCC(=O)N[C@@H](Cc2cnc[nH]2)C(=O)N[C@H](Cc2ccccc2)C(=O)N[C@@H](CCCNC(=N)N)C(=O)N[C@@H](Cc2c[nH]c3ccccc23)C(=O)N1)C(=O)N[C@H](C(=O)NCC(N)=O)C(C)C
7 |  | > 10000 | CC(C)[C@H](NC(=O)[C@@H]1CCC(=O)NCC(=O)N2CCC[C@H]2C(=O)N[C@H](Cc2ccccc2)C(=O)N[C@@H](CCCN=C(N)N)C(=O)N[C@@H](Cc2c[nH]c3ccccc23)C(=O)N1)C(=O)N[C@H](C(=O)NCC(N)=O)C(C)C
8 | Not Active | 60 | CC(C)[C@H](NC(=O)[C@@H]1CCC(=O)N[C@@H](Cc2c[nH]cn2)C(=O)N[C@H](Cc2ccc3ccccc3c2)C(=O)N[C@@H](CCCN=C(N)N)C(=O)N[C@@H](Cc2c[nH]c3ccccc23)C(=O)N1)C(=O)N[C@H](C(=O)NCC(N)=O)C(C)C
9 | Not Active | 2 | CC(C)[C@H](NC(=O)[C@@H]1CCC(=O)NCCC(=O)N[C@@H](Cc2c[nH]cn2)C(=O)N[C@H](Cc2ccc3ccccc3c2)C(=O)N[C@@H](CCCN=C(N)N)C(=O)N[C@@H](Cc2c[nH]c3ccccc23)C(=O)N1)C(=O)N[C@H](C(=O)NCC(N)=O)C(C)C
10 | Not Active | 313 | CC(C)[C@H](NC(=O)[C@@H]1CCC(=O)NCCCC(=O)N[C@@H](Cc2c[nH]cn2)C(=O)N[C@H](Cc2ccccc2)C(=O)N[C@@H](CCCN=C(N)N)C(=O)N[C@@H](Cc2c[nH]c3ccccc23)C(=O)N1)C(=O)N[C@H](C(=O)NCC(N)=O)C(C)C
11 |  | > 10000 | CC(C)[C@H](NC(=O)[C@@H]1CCC(=O)N[C@@H](Cc2cnc[nH]2)C(=O)N[C@@H](Cc2ccccc2)C(=O)N[C@@H](CCCNC(=N)N)C(=O)N[C@@H](Cc2c[nH]c3ccccc23)C(=O)N1)C(=O)N[C@H](C(=O)NCC(N)=O)C(C)C
12 | Not Active |  | CC(C)[C@H](NC(=O)[C@@H]1CCC(=O)NCCCC(=O)N[C@@H](Cc2c[nH]cn2)C(=O)N[C@H](Cc2ccc3ccccc3c2)C(=O)N[C@@H](CCCN=C(N)N)C(=O)N[C@@H](Cc2c[nH]c3ccccc23)C(=O)N1)C(=O)N[C@H](C(=O)NCC(N)=O)C(C)C
13 |  | 23 | CC(C)[C@H](NC(=O)[C@@H]1CCC(=O)NCCCC(=O)N[C@@H](Cc2cnc[nH]2)C(=O)N[C@H](Cc2ccc3ccccc3c2)C(=O)N[C@@H](CCCNC(=N)N)C(=O)N[C@@H](Cc2c[nH]c3ccccc23)C(=O)N1)C(=O)N[C@H](C(=O)NCC(N)=O)C(C)C
14 | Not Active | 60 | CC(C)[C@H](NC(=O)[C@@H]1CCC(=O)NCC(=O)N[C@@H](Cc2c[nH]cn2)C(=O)N[C@H](Cc2ccc3ccccc3c2)C(=O)N[C@@H](CCCN=C(N)N)C(=O)N[C@@H](Cc2c[nH]c3ccccc23)C(=O)N1)C(=O)N[C@H](C(=O)NCC(N)=O)C(C)C
15 |  | > 10000 | CC(C)[C@H](NC(=O)[C@@H]1CCC(=O)N2CCC[C@H]2C(=O)N[C@H](Cc2ccc3ccccc3c2)C(=O)N[C@@H](CCCN=C(N)N)C(=O)N[C@@H](Cc2c[nH]c3ccccc23)C(=O)N1)C(=O)N[C@H](C(=O)NCC(N)=O)C(C)C
16 |  | > 10000 | CC(C)[C@H](NC(=O)[C@@H]1CCC(=O)NCC(=O)N2CCC[C@H]2C(=O)N[C@H](Cc2ccc3ccccc3c2)C(=O)N[C@@H](CCCN=C(N)N)C(=O)N[C@@H](Cc2c[nH]c3ccccc23)C(=O)N1)C(=O)N[C@H](C(=O)NCC(N)=O)C(C)C
17 |  | 825 | CC(C)[C@H](NC(=O)[C@@H]1CCC(=O)N[C@@H](Cc2c[nH]cn2)C(=O)N[C@H](Cc2ccccc2)C(=O)N[C@@H](CCCN=C(N)N)C(=O)N[C@@H](Cc2c[nH]c3ccccc23)C(=O)N1)C(=O)N[C@H](C(=O)NCC(N)=O)C(C)C
18 | Not Active | 5200 | CC(C)[C@H](NC(=O)[C@@H]1CCC(=O)NCC(=O)N[C@@H](Cc2cnc[nH]2)C(=O)N[C@@H](Cc2ccccc2)C(=O)N[C@@H](CCCNC(=N)N)C(=O)N[C@@H](Cc2c[nH]c3ccccc23)C(=O)N1)C(=O)N[C@H](C(=O)NCC(N)=O)C(C)C
19 |  | > 10000 | CC(C)[C@H](NC(=O)[C@@H]1CCC(=O)NCC(=O)N[C@@H](Cc2cncn2COCc2ccccc2)C(=O)N[C@H](Cc2ccccc2)C(=O)N[C@@H](CCCN=C(N)N)C(=O)N[C@@H](Cc2c[nH]c3ccccc23)C(=O)N1)C(=O)N[C@H](C(=O)NCC(N)=O)C(C)C
